Data on one compound can be found in patent US7704986B2, “Vitamin D3 analogues for the prevention and treatment of bone disorders” (K.U. Leuven Research and Development, priority 2004, dated 2010).

One series deals with NMRI mice. As to the kind of experiment: In vivo activity: serum and femur calcium after 7 daily i.p. injections. The note with it: dose 0.2 μg/kg/d i.p., 7 days; * in cell = P < 0.05. The protocol:
Eight weeks old, male NMRI mice were fed a vitamin D-replete diet (0.2% calcium, 1% phosphate, 2000 U vitamin D/kg; Hope Farms, Woerden, The Netherlands). Groups of six mice were intraperitoneally injected daily during 7 consecutive days with different doses of 1,25(OH)2D3 (0.2 and 0.4 μg/kg/day) or analogues. The control group was injected with vehicle (arachis oil). The average weight of each group of 6 mice was determined at the beginning and at the end of the experiment. The following parameters were evaluated: serum calcium and femur calcium. Serum calcium was measured by a microcolorimetric assay (Sigma, St. Louis, Mo.). Femurs were removed and femur calcium content was measured in HCl-dissolved bone ash (obtained by heating for 24 hours in an oven at 100° C.), using the same technique as for serum calcium. Student's t-tests were carried out to detect significant differences; p<0.05 was accepted as significant. […]

The target of series [1] is T1, human vitamin D binding protein (hDBP) (Homo sapiens, UniProt P02774).
T1 sequence (P02774 17-474): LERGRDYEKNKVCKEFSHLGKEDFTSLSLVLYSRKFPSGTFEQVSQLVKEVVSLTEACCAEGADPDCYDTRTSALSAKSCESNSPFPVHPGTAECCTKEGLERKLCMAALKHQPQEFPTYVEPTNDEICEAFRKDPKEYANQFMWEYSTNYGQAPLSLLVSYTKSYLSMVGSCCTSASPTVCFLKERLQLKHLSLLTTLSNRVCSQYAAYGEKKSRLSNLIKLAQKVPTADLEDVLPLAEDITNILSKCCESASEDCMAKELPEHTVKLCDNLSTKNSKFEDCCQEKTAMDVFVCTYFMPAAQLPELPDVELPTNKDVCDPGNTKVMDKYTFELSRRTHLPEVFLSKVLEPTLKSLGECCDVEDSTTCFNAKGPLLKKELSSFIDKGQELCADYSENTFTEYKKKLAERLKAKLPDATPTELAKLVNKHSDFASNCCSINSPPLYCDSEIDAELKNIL
As to the kind of experiment: Affinity for human vitamin D binding protein. The note with it: hDBP 0.18 μM, 4° C. 3 hours; 1,25(OH)2D3 = 100. On the procedure: Binding of 1α,25(OH)2D3 analogues to hDBP was performed at 4° C. […] Phase separation was then obtained by the addition of 0.5 ml of cold dextran-coated charcoal.

The test system of series [2] is normal (no surgery) C3H female mice. As to the kind of experiment: Oral gavage versus i.p. in normal (no surgery) mice, 5 weeks. The class given is in vivo. The note with it: for BMC total body, SHAM + vitaminD analogue vs. SHAM + vehicle (= 100%) in % / BMD spine, SHAM + vitaminD analogue vs. SHAM + vehicle (= 100%) in % / BMD total body, SHAM + vitaminD analogue vs. SHAM + vehicle (= 100%) in %: DEXA, 5 weeks, increase (↑). On the procedure:
Besides injecting the compound MV2 intraperitoneally (results in table 3), it was also given orally by gavage in normal (no surgery) C3H female mice and the biological effects were investigated as described before. MV2 given orally at a dose of 1 μg/kg/2days (3 times per week) during 5 weeks was as effective as intraperitoneal injections at a dose of 0.5 μg/kg/2 days (4 times per week) during 5 weeks in C3H mice (Table 4).

For the next series, the target named is T2, vitamin D receptor (VDR) (Sus scrofa, UniProt A3RGC1).
T2 construct: high speed supernatant from intestinal mucosa homogenates obtained from normal pigs; from tissue; host or cells: pig intestinal mucosa (high speed supernatant of homogenate)
T2 sequence (A3RGC1 1-427): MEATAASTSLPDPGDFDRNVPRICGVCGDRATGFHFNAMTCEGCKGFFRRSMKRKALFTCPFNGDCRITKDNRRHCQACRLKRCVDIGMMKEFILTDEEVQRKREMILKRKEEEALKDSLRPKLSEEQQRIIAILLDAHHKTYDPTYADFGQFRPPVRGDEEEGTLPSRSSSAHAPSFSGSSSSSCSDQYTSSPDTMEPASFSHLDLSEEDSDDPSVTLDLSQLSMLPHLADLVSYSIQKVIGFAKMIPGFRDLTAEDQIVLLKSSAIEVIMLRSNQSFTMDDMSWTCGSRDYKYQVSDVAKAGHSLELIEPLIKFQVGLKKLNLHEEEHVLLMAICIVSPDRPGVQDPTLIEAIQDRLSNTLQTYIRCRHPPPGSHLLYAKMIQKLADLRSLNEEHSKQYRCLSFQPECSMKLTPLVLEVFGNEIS
Briefly: Affinity for vitamin D receptor: competition with [3H]1α,25(OH)2D3. The format is binding. The note with it: pig intestinal mucosa supernatant, 4° C. 20 hours; 1α,25(OH)2D3 = 100%. On the procedure: The methods used herein to evaluate the binding properties of vitamin D analogues are state of the art techniques used for steroid hormone (including vitamin D) binding assays. […] Incubation was performed at 4° C. for 20 hours and phase separation was obtained by addition of dextran-coated charcoal.

The subject of series [3] is OVX or SHAM C3H female mice. As to the kind of experiment: Restoration of bone loss in ovariectomized mice, oral treatment started 3 weeks after surgery. The note with it: 8 weeks. The format is in vivo. The protocol: 12-week-old C3H female mice were subjected to bilateral ovariectomy (OVX) or sham surgery SHAM (time point −3). The OVX and SHAM animals were treated with the vitamin D analogue MV2 (1 μg/kg three times per week) or vehicle (arachis oil) by oral gavage. Dosing was started 3 weeks after surgery (time point 0) and was continued for 8 weeks (time point 8). The number of mice per group is 8 to 10.
Before the surgery and 3 weeks after ovariectomy in vivo, measurements were performed in order to determine bone mineral density (BMD), bone mineral content (BMC) of total body and spine by DEXA. Before the surgery and 3 weeks after ovariectomy, serum was collected to measure calcium levels by a standard […] method (Synchron CX4, Beckman Instruments, USA). The animals were weighted regularly during the experimental period to monitor their overall health and well being. After 4 weeks treatment, serum was again collected and biochemical parameters were determined. At the end of the experiment (8 weeks of treatment) bone mineral density (BMD) and bone mineral content (BMC) of total body and spine were measured by DEXA and serum was collected to determine serum calcium levels. […] Tibiae were used for histomorphometric analysis, and femurs for measurement of cortical and trabecular volumetric density and geometry by peripheral quantitative computed tomography (PQCT) ex vivo. […]

Setting [4] is: 0.5 μg/kg/2 days i.p. 4 times per week.
The mark [5] stands for this setting: 1 μg/kg/2 days orally 3 times per week.

With `C[C@H](CC#CC(O)(C(F)(F)F)C(F)(F)F)[C@@]1(C)CC[C@@H](/C=C/C=C2C[C@@H](O)C[C@H](O)C2)C1(C)C` [MV2, (1R,3R)-5-((E)-3-((1S,3R)-3-((1R)-6,6,6-trifluoro-5-hydroxy-1-methyl-5-trifluoromethyl-3-hexynyl)-2,2,3-trimethylcyclopentyl)-2-propenylidene)cyclohexane-1,3-diol], in the series on NMRI mice, the “Serum calcium vs. control (%)” value is given as 97% and the “femur calcium vs. control (%)” value is listed as 112* %. Moreover, the “DBP (relative affinity)” value in series [1] amounted to 7%. Moreover, in series [2] (setting [4]), the “BMC total body, SHAM + vitaminD analogue vs. SHAM + vehicle (= 100%) in %” value is listed as 7 ↑ %; the “BMD spine, SHAM + vitaminD analogue vs. SHAM + vehicle (= 100%) in %” value is reported as 9 ↑ %; the “BMD total body, SHAM + vitaminD analogue vs. SHAM + vehicle (= 100%) in %” value is given as 4 ↑ %. In addition, in series [2] (setting [5]), the “BMC total body, SHAM + vitaminD analogue vs. SHAM + vehicle (= 100%) in %” value was 10 ↑ %; the “BMD spine, SHAM + vitaminD analogue vs. SHAM + vehicle (= 100%) in %” value was 14 ↑ %; the “BMD total body, SHAM + vitaminD analogue vs. SHAM + vehicle (= 100%) in %” value is given as 5 ↑ %. Besides, the serum calcium levels in series [2] (analogue treated mice, 5 weeks (control mice 11.43±0.78)) was 11.36 ± 0.56 mg/dL. The “VDR (relative affinity)” value at vitamin D receptor (VDR) stood at 50%. The “hypercalcemic effects (serum calcium)” value in series [3] (1 pg/kg three times per week (so in the source)) is “no hypercalcemic effects”. Also, the “body weight during treatment” value in series [3] (1 μg/kg p.o. three times per week) is listed as “no animals lost weight”.
